Eight molecules from PubChem BioAssay (NCI) can be followed below.

Test in all cases: growth of human tumour cells (NCI), 48 h
For test [1], the system named is HS 578T breast.
Test [2] relates to UACC-62 melanoma.
For test [3], the system named is RPMI-8226 leukemia.
Test [4] concerns SK-MEL-5 melanoma.
Test [5] relates to SF-295 CNS.
The subject of test [6] is OVCAR-5 ovarian.
Test [7] deals with SK-MEL-2 melanoma.
Test [8] relates to HT29 colon.
For test [9], the system named is SNB-19 CNS.
Test [10] deals with RXF 393 renal.

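Protocol summary: plate cells (96-well), add compound at 5 concentrations, incubate 48 h, interpolate endpoints linearly. GI50: concentration for 50% inhibition of growth. Definition used: TGI = concentration required for complete inhibition of growth.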

`O=C1NC(=NCCc2ccc(F)cc2)S/C1=C\c1ccc2ncccc2c1`: the GI50 in test [1], in test [2], in test [3], in test [4], in test [5] and in [6] was more than 25 µM in each case. Also, the GI50 in [7], in test [8], in test [9] and in test [10] was more than 25 µM in each case. The TGI in [1], in test [2], in [3], in test [4], in [5] and in test [6] was more than 25 µM throughout. Besides, the TGI in test [7], in [8], in test [9] and in test [10] was more than 25 µM in each case.

Regarding `C/C(=N\O)c1ccc2ccc3ccccc3c2c1`, the TGI was 80.6 µM in test [1]; 45.2 µM in test [2]; more than 100 µM in [3]; 37 µM in test [4]; 86.9 µM in [5]; more than 100 µM in [6]. Further, the TGI in test [7], in test [8], in test [9] and in [10] was more than 100 µM in each case.

Consider `CC1CC2C3CCC4=CC(=O)C=CC4(C)C3(F)C(O)CC2(C)C1(O)C(=O)COP(=O)(O)O` (centres undefined), for which the GI50 in test [1] was more than 500 µM; in [2] it was more than 500 µM; in test [3], 16.6 µM; in [4], more than 500 µM; in test [5], more than 500 µM; in test [6], more than 500 µM. In addition, the GI50 in test [7], in test [8], in [9] and in test [10] was more than 500 µM throughout. The TGI in test [1], in [2], in [3], in test [4], in test [5] and in [6] was more than 500 µM in each case. Also, the TGI in test [7], in test [8], in test [9] and in test [10] was more than 500 µM each time.

As for `NS(=O)(=O)c1ccc(Nc2cc(-c3ccc(O)c(F)c3)[nH]n2)cc1`, the GI50 in test [1] is 7.28 µM; in test [2], more than 25 µM; in [3], more than 25 µM; in test [4], 10.7 µM; in [5], more than 25 µM; in test [6], more than 25 µM. Besides, the GI50 is 11.4 µM in test [7], more than 25 µM in [8], more than 25 µM in test [9] and more than 25 µM in test [10]. The TGI in test [1], in test [2], in test [3], in test [4], in test [5] and in test [6] was more than 25 µM each time. The TGI in [7], in test [8], in test [9] and in test [10] was more than 25 µM throughout.

Consider `COc1ccc2c(c1)OC(N)=C(C#N)C2c1cc(OC)c(OC)c(OC)c1` (centres undefined), for which the GI50 in test [1] was 0.0408 µM; in test [2], 0.0343 µM; in test [3], 0.0389 µM; in [4] it was 0.0317 µM; in test [5], 0.03 µM; in [6], 0.059 µM. The GI50 is 0.0321 µM in test [7], 0.0328 µM in test [8], 0.0864 µM in test [9] and 0.0344 µM in test [10]. Further, the TGI is more than 100 µM in test [1]; more than 100 µM in test [2]; more than 100 µM in test [3]; more than 44.4 µM in test [5]; more than 100 µM in test [6]; 0.151 µM in test [7]. Besides, the figures for the TGI in test [8], in [9] and in test [10] were 0.172 µM, more than 100 µM and 73.6 µM, respectively.

Take `CCCn1c2c(c3ccccc3c1=O)C(=O)c1ccccc1-2`: the TGI in [1], in [2], in test [3], in [4], in test [5] and in test [6] was more than 100 µM in each case. Besides, the TGI in test [7], in [8], in [9] and in test [10] was more than 100 µM each time.

In the case of `Cc1cc(=O)oc2ccc(OC/C=C3\CCC(=O)O3)cc12`, the GI50 is 10.8 µM in test [1]; 10.3 µM in test [2]; 1.81 µM in [3]; 16.4 µM in [4]; 15.3 µM in test [5]; 14.8 µM in test [6]. Besides, the GI50 in [7] was 10.7 µM; in test [8], 3.62 µM; in test [9], 13 µM; in [10], 5.85 µM. The TGI turned out to be 48.9 µM in test [1]; 22.8 µM in test [2]; 11.2 µM in test [3]; 32.5 µM in [4]; 41.9 µM in test [5]; 31.2 µM in test [6]. Further, the TGI worked out at 30.6 µM in test [7], 15.5 µM in test [8], 30.8 µM in test [9] and 21.3 µM in test [10].

As for `C=C1C(=O)O[C@H]2[C@H]1CC/C(COC(=O)c1cc(OC)c(OC)c(OC)c1)=C\CC[C@@]1(C)O[C@@H]21`, the GI50 in test [1] was 3.68 µM; in [2], 1.18 µM; in test [3], 0.422 µM; in test [4], 1.68 µM; in [5] it was 3.84 µM; in test [6] it was 1.76 µM. Also, the GI50 in test [7] is 1.6 µM; in test [8], 0.441 µM; in test [9], 2.55 µM; in test [10] it was 0.299 µM. Also, the TGI in test [1] is 32.7 µM; in test [2] it was 2.67 µM; in test [3], 2.34 µM; in test [4], 3.05 µM; in [5] it was 15.8 µM; in test [6] it was 5.08 µM. In addition, the TGI in [7] was found to be 3.63 µM; in test [8], 2.09 µM; in test [9] it was 10.6 µM; in test [10], 1.27 µM.
